Where a name gives a salt, the structure may show the parent alone. Read-outs that look alike come from different tables or passages of the source.
How the values were obtained:
[1] = target: T1, BLM-RAD54 interaction (BLM F2 and N-RAD54 F1) (Homo sapiens, UniProt Q92698); test: Renilla luciferase-based protein complementation assay (PCA); type: cell-based
T1 construct: expressed in transfected cells; host or cells: HEK293T
T1 sequence (Q92698 1-212): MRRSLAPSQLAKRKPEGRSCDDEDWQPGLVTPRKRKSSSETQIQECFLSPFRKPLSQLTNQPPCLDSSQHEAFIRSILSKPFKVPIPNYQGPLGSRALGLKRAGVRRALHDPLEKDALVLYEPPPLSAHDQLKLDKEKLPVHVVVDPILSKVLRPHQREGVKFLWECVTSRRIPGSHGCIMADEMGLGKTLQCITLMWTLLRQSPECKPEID
Protocol: Specifically, N-RAD54-F1, C-RAD54-F1, BLM-F1 and BLM-F2 were transfected in HEK293T. Forty-eight hours post-transfection, Renilla luciferase-based PCA were carried out with the indicated combination of the expressed proteins. The experiment was repeated three times. Mean±S.D.
Using the Renilla luciferase-based protein complementation assay described earlier, 1280 FDA/EMA approved small molecules present in Prestwick chemical library were screened for their ability to disrupt BLM-RAD54 interaction. Each of the small molecules was incubated with HEK293T cells expressing BLM-F2 and N-RAD54-F1. Compared to cells expressing only BLM-F2 and N-RAD54-F1, the decrease in Renilla luciferase intensity in presence of each small molecule was monitored. Percentage disruption of the interaction between BLM F2 and N-RAD54 F1 was plotted in form of heatmap. The disruption of the BLM-RAD54 interaction was determined by a decrease in the Renilla luciferase activity as compared to control untreated cells.
The percentage disruption of the interaction between BLM F2 and N-RAD54 F1 was plotted as a non-linear regression line. The data was from three independent experiments.
Renilla Luciferase (Rlu) based Protein complementation assay was carried out as described in (Stefan et al., 2007). For preliminary screening of the Prestwick Chemical Library (containing 1280 FDA/EMA approved small molecules), HEK293T cells were seeded in the 6-well plates a day prior to the transfection. Next day the cells were transfected by 2 μg each of pcDNA3.1 N-RAD54 F1, pcDNA3.1 C-RAD54 F1, pcDNA3.1 BLM F1, pcDNA3.1 BLM F2 plasmids (alone or in different combinations) using Lipofectamine 2000 (according to the manufacturer's protocol). 36 hours post-transfection, approximately […] cells were seeded in a 96-well plate and incubated at 37° C. for 2 hour with or without 10 μM of the 1280 small molecules present in the library. 10 μM of Coenleterazine h was added into each well and Rluc activity was monitored for the first 10 seconds in Varioskan Microplate Reader (Thermo Fisher Scientific). The validation screen was performed with 17 small molecules at 100 μM, 10 μM, 1 μM, 100 nM, 10 nM and 1 nM concentrations. The percentage reduction in the protein-protein interaction was then calculated as compared to the control wells (without any small molecule).

HCT116 IC60 CPTR cells = test: MTT assay, CPT gradient with or without disruptor; type: cell-based; details: Homo sapiens, HCT-116, CPT gradient alone, 72 hours, read-out: EC50 (μM), HCT116 WT CPT^R
Protocol: (§1) The three resistant lines and their wildtype counterpart HCT116 were exposed to a gradient of CPT, CDDP or 1-OHP.
(§2) Concentrations of CPT used: 0.140 nM, 20 nM, 50 nM, 1000 nM. Concentration of 1-OHP: 0.14 μM, 2 μM, 4 μM, 6 μM, 8 μM. Concentrations of CDDP used: 0.140 μM, 2 μM, 5 μM, 10 μM. The percentage of viable cells were determined by MTT assays (FIG. 12A-12C). The data in FIG. 12A and FIG. 12C is from three independent experiments and the data in FIG. 12B is from nine independent experiments. […] The levels of MRP2, MRP3, MRP5, MXR were quantitated from three independent experiments. […] Specifically, HCT116 IC60 CPTR cells were transfected with the HR substrate for 72 hours and the levels of HR was determined (FIG. 6A). The data is from three independent experiments. […] The number of soft agar colonies in each condition were counted. The data is from three independent experiments.
To generate camptothecin and cisplatin resistant cells (named as HCT116 IC60 CPT^R, HCT116 IC60 CDDP^R respectively), HCT116 wild type were seeded in a 10 cm dish to a confluency of 80%. The IC20 concentrations of cisplatin (3.38 μM) and camptothecin (12.6 nM) was added for 2 hours and 6 hours, respectively. […] Resistant index was calculated using the following formula: Resistant index=IC60 of the resistant cells/IC60 of the parental cells. […]

HCT116 WT cells = test: MTT assay, chemotherapeutic drug gradient with or without disruptor; type: cell-based
Protocol: as §1, §2
To generate camptothecin and cisplatin resistant cells (named as HCT116 IC60 CPT^R, HCT116 IC60 CDDP^R respectively), HCT116 wild type were seeded in a 10 cm dish to a confluency of 80%. The IC20 concentrations of cisplatin (3.38 μM) and camptothecin (12.6 nM) was added for 2 hours and 6 hours, respectively. Post treatment, the cells were washed twice with 1×PBS and fresh media was added. After every 48 hours, the media was changed and IC20 concentration of the drugs were added only if the confluency of cells was at least 80%. […] Resistant index was calculated using the following formula: Resistant index=IC60 of the resistant cells/IC60 of the parental cells.
Cells were seeded in a 96-well plate overnight. Next day, the culturing media was replaced with Optimem media, followed by incubation with BLM_CPP or SCM_CPP for 1 hr. The final concentrations of the peptides were 450 nM for cisplatin (CDDP) and 180 nM (for all other drugs). […] Post treatment, the cells were washed with 1×PBS and fresh media was added. After 72 hours, MTT assay was carried out to determine the percentage cell viability of the cells with respect to the untreated cells.

RAD54 = target: T2, RAD54 (Homo sapiens, UniProt Q92698); test: ATP binding assay; type: biochemical; details: 180 nM peptide
T2 construct: GST RAD54 (1-747) (WT); made in house; host or cells: E. coli BL-21 DE3
T2 sequence (Q92698 1-747): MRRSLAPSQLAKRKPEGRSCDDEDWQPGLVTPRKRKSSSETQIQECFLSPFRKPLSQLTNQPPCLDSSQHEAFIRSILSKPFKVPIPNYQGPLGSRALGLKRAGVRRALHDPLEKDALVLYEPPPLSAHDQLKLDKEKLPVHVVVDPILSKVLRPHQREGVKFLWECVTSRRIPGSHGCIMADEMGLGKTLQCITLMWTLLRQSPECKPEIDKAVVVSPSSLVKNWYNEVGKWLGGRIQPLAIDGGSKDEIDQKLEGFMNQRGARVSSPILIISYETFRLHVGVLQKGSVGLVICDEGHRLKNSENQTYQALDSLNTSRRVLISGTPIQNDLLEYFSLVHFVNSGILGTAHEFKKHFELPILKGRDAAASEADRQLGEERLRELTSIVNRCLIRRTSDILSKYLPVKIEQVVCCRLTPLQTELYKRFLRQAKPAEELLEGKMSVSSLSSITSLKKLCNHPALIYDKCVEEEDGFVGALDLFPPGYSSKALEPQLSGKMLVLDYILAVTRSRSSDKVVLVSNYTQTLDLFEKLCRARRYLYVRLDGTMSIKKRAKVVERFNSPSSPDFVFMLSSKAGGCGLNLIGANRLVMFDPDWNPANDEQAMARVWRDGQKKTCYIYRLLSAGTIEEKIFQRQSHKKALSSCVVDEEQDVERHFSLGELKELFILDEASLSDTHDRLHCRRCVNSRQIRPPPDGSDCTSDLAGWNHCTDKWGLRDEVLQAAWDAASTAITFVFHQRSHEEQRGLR
Protocol: The quantitation of the ATP binding assay was carried out using RAD54 WT, RAD54 WT+BLM_peptide, and RAD54 WT+SCM_peptide. The data is from three independent experiments. Mean±S.D.
(§3) The presence of the disruptors also led to a decrease in the ATP binding to RAD54.
A 20 μl reaction was set up with 120 nM of GST-RAD54 and 180 nM of either BLM_peptide or SCM_peptide or BLM (1-212) using 4 μl of 5×ATP binding assay buffer (100 mM Tris-Cl pH 7.5, 50 mM MgCl2, 10 mM MnCl2, 5 mM DTT) and 5 μCi of [γ^32P]dATP. […] Reactions were incubated at 30° C. for 20 minutes and were stopped with 10% TCA and samples were spotted on P81 phosphocellulose paper followed by washing of paper strips with 75 mM orthophosphoric acid. A minimum of 8 washes were given in 20 hrs of 1 hr each including a 12 hr wash. Following this, strips were dehydrated in ethanol for 10 min followed by liquid scintillation counting. Reactions without the substrate were spotted as control and the same process repeated.

[2] = target: T3, RAD54 chromatin remodeling activity (Homo sapiens, UniProt Q92698); test: Restriction enzyme accessibility (REA) assay on chromatinized G5E4 array; type: biochemical; details: 180 nM peptide, +ATP
T3 construct: GST RAD54 (1-747) (WT), GST BLM (1-1417) (WT), His RAD54 (1-747) (WT); made in house; host or cells: E. coli BL-21 DE3
T3 sequence (Q92698 1-747): T2 sequence (Q92698 1-747)
From the text: (§4) The data is from three independent experiments.
as §4

[3] = target: T3, RAD54 chromatin remodeling activity; test: REA assay on chromatinized MRP2 array; type: biochemical; details: 180 nM peptide, +ATP
From the text: (§5) The data was from three independent experiments.
as §5, §4

His-RAD54 WT = target: T4, His-RAD54 WT (Homo sapiens, UniProt Q92698); test: Tryptophan fluorescence assay; type: binding; details: increasing amount of peptide
T4 construct: made in house; host or cells: E. coli BL-21 DE3
T4 sequence (Q92698 1-747): T2 sequence (Q92698 1-747)
Protocol: To determine how BLM peptide affects ATP binding and hydrolysis, tryptophan fluorescence assays were carried out using full-length recombinant RAD54 in presence of either BLM_peptide or SCM_peptide (FIG. 2H). Tryptophan fluorescence assays were carried out with RAD54 WT alone or RAD54 WT in presence of the indicated concentrations of either BLM_peptide (upper panel) or SCM_peptide (lower panel). The experiment was repeated three times and one representative experiment has been shown.
RAD54 fluorescence was measured in a fluorometer.
Tryptophan fluorescence measurements were performed on a Fluoromax Spectrofluorimeter (Horiba-Jobin Yvon Fluoromax 4). Recombinant His-RAD54 (500 nM) was excited at 280 nm and the emission intensity monitored at regular intervals from 295 nm to at least 450 nm.

RAD54 ATPase activity = target: T5, RAD54 ATPase activity (Homo sapiens, UniProt Q92698); test: ATPase assay; type: biochemical; details: peptide gradient 180 nM, 360 nM, 540 nM
T5 construct: made in house; host or cells: E. coli BL-21 DE3
T5 sequence (Q92698 1-747): T2 sequence (Q92698 1-747)
Protocol: The data is from three independent experiments. Mean±S.D.
as §3
Assay for RAD54 ATPase activity was carried out as per the previously published protocol (Srivastava et al., 2009). His-RAD54 (120 nM) was incubated with the GST-BLM (1-212) or BLM_peptide or SCM_peptide (180 nM). […] 1 μl of the sample was spotted on the polyethyleneimine-coated TLC plate, resolved in 1M Formic Acid and 0.3M LiCl. The products of ATP hydrolysis were then visualized by Phosphoimager scans taken in Typhoon™ laser-scanner platform (Cytiva) and quantitated using the inbuilt software.

[4] = disruption of BLM F2 / N-RAD54 F1 interaction, HEK293T cells, 1 nM to 100 μM, read-out: EC50
[5] = HCT116, used to generate resistant cells

CN(C)C(=N)N=C(N)N [C4, Metformin hydrochloride]
EC50 [1, 4]: 3.01 ± 0.812 nM

Cc1cnc(C(=O)NCCc2ccc(S(=O)(=O)NC(=O)NC3CCCCC3)cc2)cn1 [C13, Glipizide]
EC50 [1, 4]: 6.75 ± 3.69 nM

Cc1ncc([N+](=O)[O-])n1CCO [C8, Metronidazole]
EC50 [1, 4]: 20.5 ± 2.61 nM

CC(C)CC1C(=O)N2CCC[C@H]2[C@]2(O)O[C@](NC(=O)[C@@H]3C=C4c5cccc6[nH]c(Br)c(c56)C[C@H]4N(C)C3)(C(C)C)C(=O)N12 (stereo partly drawn) [C12, Bromocryptine mesylate]
EC50 [1]: 41.4 ± 4.46 nM

COc1c2occc2c(OC)c2c(=O)cc(C)oc12 [C9, Khellin]
EC50 [1, 4]: 16.7 ± 1.26 nM

CC[C@@]1(O)C(=O)OCc2c1cc1n(c2=O)Cc2cc3ccccc3nc2-1 [CPT, camptothecin]
EC50 (HCT116 IC60 CPTR cells): 0.354 ± 0.00561 µM
IC40 concentration (HCT116 WT cells; [5]): 30.8 nM
IC60 concentration (HCT116 WT cells; [5]): 92.6 nM
EC50 (HCT116 WT cells; Homo sapiens, HCT-116, CPT gradient alone, MTT, 72 hours, read-out: EC50 (μM), HCT116 WT): 0.043 ± 0.0037 µM
IC20 (HCT116 WT cells; Homo sapiens, HCT-116, HCT116 wild type, used to generate resistant cells, read-out: IC20 concentration): 12.6 nM

CC[C@H]1OC(=O)[C@H](C)[C@@H](O[C@H]2C[C@@](C)(OC)[C@@H](O)[C@H](C)O2)[C@H](C)[C@@H](O[C@@H]2O[C@H](C)C[C@H](N(C)C)[C@H]2O)[C@](C)(O)C[C@@H](C)C(=O)[C@H](C)[C@@H](O)[C@]1(C)O [C15, Erythromycin]
EC50 [1, 4]: 8.12 ± 3.89 nM

C[C@]12C=CC(=O)C=C1CC[C@@H]1[C@@H]2C(=O)C[C@@]2(C)[C@H]1CC[C@]2(O)C(=O)CO [C6, Prednisone]
EC50 [1, 4]: 6.26 ± 2 nM

COc1ccc(CC2c3cc(OC)c(OC)cc3CC[N+]2(C)CCC(=O)OCCCCCOC(=O)CC[N+]2(C)CCc3cc(OC)c(OC)cc3C2Cc2ccc(OC)c(OC)c2)cc1OC (stereo not drawn) [C5, Atracurum besylate]
EC50 [1, 4]: 5.38 ± 2.17 nM

Oc1c(Cl)cc(Cl)c2cccnc12 [C16, Chloroxine]
EC50 [1, 4]: 26.4 ± 2.28 nM

Nc1nc2nn[nH]c2c(=O)[nH]1 [C1, Azaguanine-8]
EC50 [1, 4]: 22.3 ± 1.98 nM

NC(=O)NC1NC(=O)NC1=O (stereo not drawn) [C2, Allantoin]
EC50 [1, 4]: 17.9 ± 1.82 nM

BLM_peptide: BLM (181-212) peptide, sequence STAQKSKKGKRNFFKAQLYTTNTVKTDLPPPS
binding of ATP to RAD54 (RAD54): enhanced the binding of ATP to RAD54
chromatin remodeling activity of RAD54, fraction uncut [2]: enhance the chromatin remodeling activity of RAD54, to the same extent as BLM (1-212)
RAD54 mediated remodeling activity, fraction uncut [3]: enhanced RAD54 mediated remodeling activity on MRP2 substrate
tryptophan fluorescence of RAD54 (His-RAD54 WT): progressively enhanced fluorescence quenching
ATPase activity of RAD54 (RAD54 ATPase activity): increased the ATPase activity of RAD54
